Earlier results as cited in US20240000752A1, “MICROSUSPENSION AGAINST PARASITES AND METHOD FOR OBTAINING SAME” (Ipanema Industria de Productos Veterinarios Ltda, priority 2020, published 2024).

Legend:
[1] = tested on: Ostertagia ostertagi Cooperia pectinata, Cooperia punctata, Trichostrongylus axei, Trichostrongylus colubriformis, Oesophagostomum radiatum, Haemonchus placei …

## CO[C@H]1C[C@H](O[C@H]2[C@H](C)O[C@@H](O[C@@H]3/C(C)=C/C[C@@H]4C[C@@H](C[C@]5(C=C[C@H](C)[C@@H](C6CCCCC6)O5)O4)OC(=O)[C@@H]4C=C(C)[C@@H](O)[C@H]5OC/C(=C\C=C\[C@@H]3C)[C@]54O)C[C@@H]2OC)O[C@@H](C)[C@@H]1O [doramectin]
[1]
  efficacy against endoparasites and ectoparasites: effective

## CCC[S+]([O-])c1ccc2[nH]c(NC(=O)OC)nc2c1 (stereo not drawn) [albendazole sulfoxide]
other
  pka: 7.8
  solubility in water: low solubility in water
